Measurements published in patent US20170112859A1, “METHOD OF TREATMENT USING AN ASSOCIATION OF LOSARTAN AND ACETYLSALICYLIC ACID, AND KIT” (BIOLAB SANUS FARMACEUTICA LTDA, priority 2014, published 2017).
Entries after “also recorded” stand apart in the source; their conditions may differ.

Key:
platelet aggregation = platelet aggregation tests with arachidonic acid or ADP as stimulants, volunteers' platelet-rich plasma; type: in vivo, human
Experimental: (§1) One group (Arm A) received 30 days of daily doses of 50 mg of losartan potassium and 81 mg of acetylsalicylic acid. The second group (Arm B) received over the same 30 day period, daily doses of 50 mg of losartan potassium and doses of 81 mg of acetylsalicylic acid only every three days.
(§2) Control of bioavailability for acetylsalicylic acid in the analyzed individuals was performed through platelet aggregation tests, using arachidonic acid and adenosine diphosphate (ADP) as stimulants, and through the measuring of thromboxane by immunoenzymatic techniques.
(§3) The test results shown in FIGS. 1 to 6 consider four periods: D0, which is the pre-test time D15—the fifteenth day of testing, D16—the sixteenth day of testing and D17—the seventeenth day testing.

[1] = target: T1, platelet cyclooxygenase enzyme (Homo sapiens, UniProt P23219); assay: measurement of thromboxane B2 (TXB2) in stimulated platelet-rich plasma by immunoenzymatic technique; type: in vivo; settings: D15-D17
T1 construct: from tissue; host or cells: platelets of dosed healthy volunteers (ex vivo stimulation with arachidonic acid or ADP)
T1 sequence (P23219 24-599): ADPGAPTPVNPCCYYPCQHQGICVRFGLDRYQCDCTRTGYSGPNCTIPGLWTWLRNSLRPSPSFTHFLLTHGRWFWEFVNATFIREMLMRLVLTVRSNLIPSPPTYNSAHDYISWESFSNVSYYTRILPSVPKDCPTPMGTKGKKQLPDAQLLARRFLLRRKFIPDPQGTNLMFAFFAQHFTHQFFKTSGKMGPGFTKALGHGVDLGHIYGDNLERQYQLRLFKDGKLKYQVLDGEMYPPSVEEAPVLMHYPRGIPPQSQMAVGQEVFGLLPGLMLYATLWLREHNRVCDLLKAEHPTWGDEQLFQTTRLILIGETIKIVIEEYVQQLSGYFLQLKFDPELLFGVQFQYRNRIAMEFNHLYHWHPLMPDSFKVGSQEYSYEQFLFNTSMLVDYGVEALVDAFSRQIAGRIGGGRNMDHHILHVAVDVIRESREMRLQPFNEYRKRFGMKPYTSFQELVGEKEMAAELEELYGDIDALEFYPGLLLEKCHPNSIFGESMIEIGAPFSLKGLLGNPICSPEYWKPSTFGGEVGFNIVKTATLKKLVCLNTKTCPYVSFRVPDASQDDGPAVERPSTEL
Experimental: as §1, §2
Such control is based on tests to evaluate the competition between two compounds for binding to a specific antibody, namely, free thromboxane 2 (TXB 2) to be analyzed and present in the samples tested, and marked thromboxane 2 (TXB 2), attached to a molecule of acetylcholinesterase and with constant concentration (provided by the test kits).
as §3

[2] = test system: prostaglandin synthesis (PGE2) in gastric mucosa; assay: prostaglandin-E2 concentration in antrum biopsies collected during endoscopy, pre- and post-treatment; type: in vivo, human; settings: 30 days
Experimental: as §1
To obtain this proof, endoscopic tests were performed on each volunteer, always before starting treatment and also after treatment, when biopsies were collected.
From these samples, collected from both Arm A and Arm B of the treatment, the inhibition of prostaglandin was measured.

[3] = test system: prostaglandin synthesis (PGE2) in gastric mucosa; settings: daily use, as described in the prior art; cited from earlier work
[4] = Arm A: 81 mg daily plus 50 mg losartan potassium daily
[5] = Arm B: 81 mg every three days plus 50 mg losartan potassium daily

For CC(=O)Oc1ccccc1C(=O)O [acetylsalicylic acid], which “level of platelet inhibition” value (platelet aggregation; Arm A (81 mg daily) compared with Arm B (81 mg every three days), both with 50 mg losartan potassium daily, 30 days, healthy volunteers, stimulants arachidonic acid 300 μg/ml or ADP 20 μM) is on record?
Its value is “almost the same level of platelet inhibition”.

And the “inhibitory effect of the platelet aggregation” value (platelet aggregation; acetylsalicylic acid administered every three days)?
Its value is “sustained”.

What about the “inhibition of the platelet cyclooxygenase enzyme” value [1, 4] of the same compound?
The value was “satisfactory inhibition”.

And the “inhibition of the platelet cyclooxygenase enzyme” value [1, 5]?
The value was “satisfactory inhibition”.

What about the “prostaglandin (PGE2) levels post-treatment versus pre-treatment basal” value [2, 4] of the same compound?
Its value is “significant decrease”.

And the “prostaglandin (PGE2) levels post-treatment versus pre-treatment basal” value [2, 5]?
The value was “did not alter the basal dose; also recorded: remained unaltered”.

What about the PGE2 levels [3] of the same compound?
Its PGE2 levels is “drastically reduces”.
